Structures can show the parent of a compound that is named as a salt.
How the values were obtained:
[1] = Depot injected into rat periodontal pocket; format: in vivo; conditions: PC/GDO/EtOH/Gardol (34/51/10/5) injected into rat periodontal pocket
Experimental: In order to treat periodontitis or perimplantitis an antibacterial formulation is injected in the periodontal pocket, and a prolonged effect of the formulation is normally desired. […] The injected composition is observed to transform from the low viscous formulation, and which initially spreads out to fill voids, to form a solid mass by uptake of gingival fluids. An antibacterial depot system is thus provided.
This formulation is injected into the rat periodontal pocket.
Gardol is observed to remain at clinically effective levels in the GCF of the periodontal pockets for a prolonged period (several days).

[2] = SAXD nanostructure of lipid compositions hydrated with PBS; format: physicochemical; conditions: for API concentration at which the cubic Fd3m structure is not significantly altered / API concentration at which the cubic structure is completely lost / API concentration at which transformation into L2 solution begins: SPC/GDO 35/65, lipid/EtOH/PG 85/10/5, PBS
Experimental: Aqueous phase behavior was studied by hydrating non-aqueous lipid formulations with phosphate buffered saline (0.01 M phosphate buffer with 0.137 M NaCl and 0.002 M KCl, pH 7.4) at various weight ratios: 2:1, 1:1, 1:2 and 1:9. After brief vortexing, samples were left to equilibrate at room temperature for 1 week before X-ray diffraction measurements.
The nanostructure of hydrated lipid samples was studied using synchrotron small angle X-ray diffraction (SAXD). Measurements were performed at the 1911 beam-line at MAX-lab (Lund University, Sweden), using a Pilatus 1M 165 mm CCD detector with a resolution of 981×1043 pixels at a pixel size of 0.172 mm. The lipid samples were mounted between kapton windows in a steel sample holder at a sample-to-detector distance of 1312 mm. Diffractograms were recorded at the X-ray wavelength of 0.91 Å and a beam size of 0.25×0.25 mm (full width at the half maximum) at the sample. Temperature control within 0.1° C. was achieved using computer controlled Julabo heating circulator F12-MC (Julabo Labortechnik GMBH, Seelbach, Germany). When temperature effects were studied, the experiments were performed successively at 25° C., 37° C. and 42° C. with a 3-min exposure time at each temperature and a wait of 10 minutes between temperature steps. The resulting CCD images were integrated and analysed using the Fit2D software provided by Dr. A. Hammersley (http://www.esrf.fr/computing/scientific/FIT2D). Silver behanate calibrated sample-to-detector distance and detector positions were used.

[3] = Surface gel formation of chlorhexidine depots in situ; format: physicochemical; conditions: applied as a liquid, bioadhesive gel in situ
Excerpt: For topical bioadhesive, controlled release products for intraoral (including buccal & periodontal) administration; • i. benzydamine (local analgesic, anti inflammatory) or other local analgesic, analgesic, anti inflammatory, anti bacterial, anti fungal or combination thereof. Composition provides sustained effect at intraoral mucosa, in particular damaged, sensitised, infected mucosa e.g. in patients suffering from oral mucositis (induced by e.g. chemo- and radiotherapy). In particular for treatment of oral mucositis. • ii. tramadol (analgesic). […] Particularly for long acting effect in periodontal pocket.

[4] = stated as clinically effective level; cited from earlier work

Molecule: CCCCCCCCCCCC(=O)N(C)CC(=O)[O-].[Na+] [Gardol, Glycine, N-methyl-N-(1-oxododecyl)-, sodium salt]
- time Gardol remains at clinically effective levels in the GCF of the periodontal pockets [1]: several days

Molecule: CCN(CC)CC(=O)Nc1c(C)cccc1C [LID, Lidocaine]
- API concentration at which the cubic Fd3m structure is not significantly altered [2]: ≤ 1.7 wt %
- API concentration at which the cubic structure is completely lost [2]: lower than 3 wt %
- API concentration at which transformation into L2 solution begins [2]: 2 wt %

Molecule: CN(C)CCCOc1nn(Cc2ccccc2)c2ccccc12 [BZD, benzydamine]
- phase formed at lipid formulation to PBS weight ratio of 1:1 ([2]; 3 wt % BZD, SPC/GDO 35/65): cubic Fd3m LC phase is formed
- effect on Fd3m LC phase at SPC/GDO weight ratio of 30/70 ([2]; 3 wt % of BZD, 25° C.): transforms into L2 solution
- API concentration at which the cubic Fd3m structure is not significantly altered [2]: up to 3.5 wt %

Molecule: CN1C2CCCC1CC(NC(=O)c1nn(C)c3ccccc13)C2 (stereo not shown) [GRN, Granisetron hydrochloride]
- API concentration at which the cubic structure is completely lost [2]: about 1.5 wt %
- API concentration at which transformation into L2 solution begins [2]: 0.8 wt %

Molecule: N=C(NCCCCCCNC(=N)NC(=N)Nc1ccc(Cl)cc1)NC(=N)Nc1ccc(Cl)cc1.O=C(O)[C@H](O)[C@@H](O)[C@H](O)[C@H](O)CO.O=C(O)[C@H](O)[C@@H](O)[C@H](O)[C@H](O)CO [chlorhexidine gluconate]
- Surface gel formation time [3]: between 1 second and 5 min

Molecule: chlorhexidine
- MIC [4]: 125 µg/mL

Molecule: CC1(C)O[C@@H]2C[C@H]3[C@@H]4CCC5=CC(=O)C=C[C@]5(C)[C@@]4(F)[C@@H](O)C[C@]3(C)[C@]2(C(=O)CO)O1 [TCA, triamcinolone acetonide]
- effect on formation and lattice dimensions of the cubic structure ([2]; SPC/GDO 35/65, lipid/EtOH/PG 85/10/5): very little effect
- API concentration at which the cubic Fd3m structure is not significantly altered [2]: ≥ 5 wt %
